Test results taken from patent publication EP1280522B1, “COMBINATION OF CARBOXYALKYLETHERS WITH ANTIHYPERTENSIVES AND PHARMACEUTICAL USE” (WARNER-LAMBERT COMPANY, priority 2000, dated 2001).
Where “and” joins values, the source holds several entries; their conditions need not be identical. Equal entries are not always repeated.

Tests used:
SHR = experiment: Antihypertensive effect on MABP in SHR by radiotelemetry: CI-1027, amlodipine and their combination (Example 2); type: in vivo, rats; details: for MABP: peak MABP 4-6 hours postdose
Procedure: The general procedure of Example 1 was followed to evaluate the antihypertensive efficacy of the carboxyalkylether CI-1027 alone and in combination with the calcium channel blocker amlodipine.
Male SHR (15-20 weeks old, Charles River Laboratories) were prepared with indwelling aortic catheters and radiotransmitters for continuous measurement of arterial blood pressure and heart rate. Animals were allowed food and water ad libitum. Before dosing all rats were given a minimum of 7 days for recovery from surgery.
The experiment was carried out over 22 days in 3 groups of SHR. Group I served as a control and received 2 mL/kg/day of vehicle (same as in Example 1) for 22 consecutive days. Group II, used to determined the antihypertensive response to amlodipine monotherapy, was given vehicle for the first 13 consecutive days. Then on Day 14, amlodipine was added at a dose of 0.3 mg/kg/day for 3 consecutive days. The dose was then increased to 1 mg/kg/day for the next 3 days, and on the final 3 days, 3 mg/kg/day was given. To determine the response to CI-1027 monotherapy, Group III received a 13-day treatment with CI-1027 monotherapy at a dose of 30 mg/kg/day. The antihypertensive response to the combination therapy was determined by the addition of amlodipine to ongoing CI-1027 treatment on Day 14.
Drugs were suspended or dissolved in vehicle that contains 96% water, 3% carboxymethocellulose, and 1% tween 88. Compounds were given at 9 AM daily by oral gavage in a volume of 2 mL/kg. The combination of CI-1027 and amlodipine was given as a single gavage in a volume of 2 mL/kg.

[1] = system: spontaneously hypertensive rats (SHR); experiment: Antihypertensive effect on MABP in SHR by radiotelemetry: CI-1027, quinapril and their combination (Example 1); type: in vivo; details: for MABP: peak MABP 2-4 hours postdose
Procedure: The antihypertensive effects of the carboxyalkylether compound of Formula III (CI-1027), alone and in combination with an antihypertensive agent such as quinapril (CI-906), were evaluated in rats according to the following protocol.
Male spontaneously hypertensive rats (SHR, 15-20 weeks old, Charles River Laboratories, Wilmington, Massachusetts) were prepared with indwelling aortic catheters and radiotransmitters (Data Sciences International, Saint Paul, Minnesota). The radiotransmitters provided continuous measurement of aortic blood pressure waveform. From the aortic blood pressure waveform a Ponemah (Gould Instruments Inc, Valley View, Ohio) computer provided mean arterial blood pressure (MABP) and heart rate values continuously as one-minute averages. One-minute data was then summarized at 15-minute intervals using Excel (Microsoft Corporation, Redmond, Washington) spreadsheets. Animals were allowed food and water ad libitum. To allow for recovery following surgery, rats were not dosed for a minimum of 7 days. Day 0 predose blood pressures were obtained by averaging eight 15-minute MABP measurements made 2 hours before dosing. To obtain the peak response to treatment (Days 0, 12, 16, 19, and 22), the 15-minute MABP measurements in the interval between 2 and 4 hours post-dose were averaged.
Test compounds were given in a vehicle that contained 96% water, 3% carbomethocellulose (Sigma Chemical, Saint Louis, Missouri) and 1% tween 88 (polyoxyethylenesorbitan monooleate, Sigma Chemical). CI-1027 and quinapril monotherapy were administered at 8:30 AM daily by oral gavage in a volume of 2 mL/kg. The combination of CI-1027 and quinapril was given as a single gavage in a volume of 2 mL/kg.
The experiment was carried out over 22 days in 4 groups of animals. Group I served as a control and received 2 mL/kglday of vehicle for 22 consecutive days. Group II, used to determine the antihypertensive response to quinapril monotherapy, was given vehicle for the first 12 to 13 consecutive days. Then on Day 13 to 14 quinapril was added at a dose of 0.3 mg/kg/day for 3 to 4 consecutive days; the dose was then increased to 1 mg/kg/day for the next 3 days, and on the final 3 days, 3 mg/kg/day was administered. To determine the response to CI-1027 monotherapy, Groups III and IV received 12-day treatment with CI-1027 monotherapy at doses of 30 and 100 mg/kg/day, respectively. To determine the antihypertensive response to the combination therapy quinapril, was added to the ongoing CI-1027 treatment (Day 13-14) using the rising dose protocol described for Group II (quinapril monotherapy).

CCOC(=O)C1=C(COCCN)NC(C)=C(C(=O)OC)C1c1ccccc1Cl (stereo not drawn) [Amlodipine, amlodipine]
MABP (SHR; Group 2, Day 16, Amlodipine 0.3 mg/kg/day oral gavage, mean ± standard error): Amlodipine (0.3 mg/kg/day) 140 ± 6 mm Hg
MABP (SHR; Group 2, Day 19, Amlodipine 1 mg/kg/day oral gavage): Amlodipine (1 mg/kg/day) 131 ± 5 mm Hg
minimal effective dose (SHR; Rattus norvegicus, po, amlodipine monotherapy (Group II), rising dose protocol, read-out: threshold antihypertensive dose): 1 mg/kg/day

CC(C)(CCCCOCCCCC(C)(C)C(=O)O)C(=O)O [CI-1027]
MABP (SHR; Group 3, Day 0, CI-1027 30 mg/kg/day oral gavage, predose 131 ± 3): CI-1027 (30 mg/kg/day) 129 ± 4 mm Hg
antihypertensive activity ([1]; CI-1027 monotherapy, 12 days, 30 and 100 mg/kg/day): modest
MABP ([1]; Group 3, Day 0, CI-1027 30 mg/kg/day oral gavage, predose 149 ± 3): 145 ± 4 mm Hg
MABP ([1]; Group 3, Day 12, CI-1027 30 mg/kg/day oral gavage, 30 mg/kg/day): 131 mm Hg and 131 ± 3 mm Hg
MABP ([1]; Group 4, Day 0, CI-1027 100 mg/kg/day oral gavage, predose 141 ± 4): 141 ± 4 mm Hg

CCOC(=O)[C@H](CCc1ccccc1)N[C@@H](C)C(=O)N1Cc2ccccc2C[C@H]1C(=O)O [Quinapril, quinapril]
MABP ([1]; Group 2, Day 16, Quinapril 0.3 mg/kg/day oral gavage, mean ± standard error): 122 ± 5 mm Hg
MABP ([1]; Group 2, Day 19, Quinapril 1 mg/kg/day oral gavage, mean ± standard error): 121 ± 4 mm Hg
MABP ([1]; Group 2, Day 22, Quinapril 3 mg/kg/day oral gavage, mean ± standard error): 117 mm Hg and 117 ± 4 mm Hg
antihypertensive response at 3 mg/kg/day greater than noted at 0.3 mg/kg/day ([1]; Quinapril monotherapy, rising dose protocol, difference between 3 and 0.3 mg/kg/day): 5 mm Hg
